Source: US10662203B2, “Pyrido[2,3-b]indole compounds for the treatment and prophylaxis of bacterial infection” (Hoffmann-La Roche Inc., priority 2017, dated 2020)
Converted amounts (≈) assume the structure as drawn.

How the values were obtained:
[1] = Single dose PK study (SDPK) in female CD-1 mouse; format: in vivo; details: MOUSE IV, 0.7 mg/kg-Solution
Procedure: Single Dose PK Study (SDPK) in Female CD-1 Mouse: The single dose PK in female CD-1 mouse was performed to assess compound's pharmacokinetic properties. One group of animals were dosed via bolus intravenous (IV) of the respective compound. Blood samples (approximately 30 μL) were collected via saphenous vein at 5 mins, 15 min, 30 min, 1 hr, 2 hr, 4 hr and 7 hr. For last time point (24 hr), samples were collected via cardiac puncture while the mouse was under anesthesia. Blood samples were placed into tubes containing EDTA-K2 anticoagulant (2 μL of 0.5M per tube) and centrifuged at 3000 rpm for 10 minutes at 4° C. within half an hour to separate plasma from the samples. Following centrifugation, plasma samples were stored in polypropylene tubes, quick frozen over dry ice and kept at −70±10° C. until LC/MS/MS analysis. The pharmacokinetic parameters were calculated using non-compartmental module of WinNonlin® Professional 6.4.

[2] = Lyophilisation solubility assay (LYSA); format: physicochemical; details: phosphate buffer, pH 6.5, aqueous buffer, thermodynamic from solid, 0.05 M phosphate buffer, HPLC-UV
Procedure, shortened: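 Read-out is HPLC-UV of the filtered solution and its 1/10 dilution. The dried residue of a 10 mM DMSO stock was redissolved in 0.05 M pH 6.5 phosphate buffer, then stirred 1 h, shaken 2 h and held overnight. Run in duplicate.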

[3] = Cytotoxicity assay (HepG2, CellTiter-Blue cell viability); format: cell-based; details: human; HepG2 cells, 3 days treatment; "*": the detection limit; read-out: CC50
Procedure: The cytotoxicity of compounds of present invention was assessed by HepG2 assay. HepG2 cells (ATCC HB-8065™) were seeded into 96-well plates (1.2×10^4 cells per well) and treated with compounds for 3 days, cell viability was measured at day 3 post compound treatment using the CellTiter-Blue® Cell Viability Assay (Promega, Cat. No. G8082). 20 μL of Cell titer blue buffer were added to each well of the cells, which were incubated for 3 hours at 37° C., and the fluorescence value was measured by a plate reader (Molecular Device SpectraMax M2). The CC50 value of each compound is plotted with GraphPad Prism using four parameter logistic equation.

[4] = test system: K. pneumoniae (ATCC10031); assay: 50% growth inhibitory concentration (IC50) determination assay; format: cell-based; details: Klebsiella pneumoniae, Iso-Sensitest broth, 0.098 = detection limit
Procedure, shortened: (§1)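 Compounds were two-fold serially diluted from 50 to 0.097 μM final in Iso-Sensitest broth, inoculated to ~5×10^5 CFU/mL and incubated at 35±2° C. Growth was followed by OD at 600 nm every 20 minutes for 16 h.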

S. aureus (ATCC29213) = assay: as above; format: cell-based; details: Staphylococcus aureus, Iso-Sensitest broth, 0.098 = detection limit
Procedure, shortened: as §1

A. baumannii (ATCC17978) = assay: as above; format: cell-based; details: Acinetobacter baumannii, ATCC17978, A. baumannii ATCC17978; Iso-Sensitest broth; 0.098 = detection limit
Procedure, shortened: as §1

SMILES	AUC total [1] [ng·h/mL]	clearance ([1]; female, CD-1, plasma, read-out: CL total) [mL/min/kg]	solubility thermodynamic [2] [µg/mL]	IC50 [4] [µM]	IC50 (S. aureus (ATCC29213)) [µM]	IC50 (A. baumannii (ATCC17978)) [µM]	CC50 at 3 days [3] [nM]
CCCN(C)c1c(-c2cnc3c(c2)c(=O)c(C(=O)O)cn3CC)cnc2[nH]c3c(NC)cc(F)c(F)c3c12 [Example 1.07]	260.7	45.8	–	–	–	–	–
CNc1cc(F)c(F)c2c1[nH]c1ncc(-c3cnc4c(c3)c(=O)c(C(=O)O)cn4NC)c(N3CCOC(CN(C)C)C3)c12 (stereo not shown) [Example 1.181]	–	–	70 (≈ 118 µM)	< 0.098	0.444	0.916	> 100000
CNc1cc(F)c(F)c2c1[nH]c1ncc(-c3cnc4c(c3)c(=O)c(C(=O)O)cn4C)c(N3CCC(N(C)C)CC3)c12 [Example 1.182]	–	–	147 (≈ 262 µM)	< 0.098	0.177	0.423	91700
CNc1cc(F)cc2c1[nH]c1ncc(-c3cnc4c(c3)c(=O)c(C(=O)O)cn4C)c(N3CCN(C)CC3)c12 [Example 1.184]	–	–	52 (≈ 101 µM)	< 0.098	< 0.098	0.148	28700
CNc1cc(F)c(F)c2c1[nH]c1ncc(-c3cnc4c(c3)c(=O)c(C(=O)O)cn4NC)c(N3CCCC(CN(C)C)C3)c12 (stereo not shown) [Example 1.186]	–	–	104 (≈ 176 µM)	< 0.098	< 0.098	0.236	45600
CNc1cc(F)cc2c1[nH]c1ncc(-c3cnc4c(c3)c(=O)c(C(=O)O)cn4C)c(N3CC[C@@H]4C(CCN4C)C3)c12 (stereo partly shown) [Example 1.188]	–	–	20 (≈ 36 µM)	< 0.098	0.232	0.307	51600
CNc1cc(F)c(F)c2c1[nH]c1ncc(-c3cnc4c(c3)c(=O)c(C(=O)O)cn4NC)c(N3CCCC(N(C)C)C3)c12 (stereo not shown) [Example 1.191]	–	–	181 (≈ 314 µM)	< 0.098	0.195	0.197	29100
CNc1cc(F)c(F)c2c1[nH]c1ncc(-c3cnc4c(c3)c(=O)c(C(=O)O)cn4NC)c(N3CC4[C@H](CCN4C)C3)c12 (stereo partly shown) [Example 1.193]	–	–	16 (≈ 27.8 µM)	< 0.098	< 0.098	0.096	> 100000
CNc1cc(F)c(F)c2c1[nH]c1ncc(-c3cnc4c(c3)c(=O)c(C(=O)O)cn4NC)c(N3CCC[C@H]3CN(C)C)c12 [Example 1.217]	–	–	190 (≈ 330 µM)	< 0.098	0.12	0.187	27800
CNc1cc(F)c(F)c2c1[nH]c1ncc(-c3cnc4c(c3)c(=O)c(C(=O)O)cn4C)c(N3CC4CN(C)C[C@@H]4C3)c12 (stereo partly shown) [Example 1.227]	–	–	12 (≈ 21.4 µM)	< 0.098	0.132	0.294	28000
CNc1cc(F)c(F)c2c1[nH]c1ncc(-c3cnc4c(c3)c(=O)c(C(=O)O)cn4C)c(N3CCC4(CCN(C)C4)C3)c12 (stereo not shown) [Example 1.229]	–	–	12 (≈ 20.9 µM)	< 0.098	< 0.098	0.297	53100
CNc1cc(F)c(F)c2c1[nH]c1ncc(-c3cnc4c(c3)c(=O)c(C(=O)O)cn4C)c(N3CCC4(CCCN4C)CC3)c12 [Example 1.230]	–	–	19 (≈ 32.3 µM)	< 0.098	0.099	0.376	> 100000
CNc1cc(F)c(F)c2c1[nH]c1ncc(-c3cnc4c(c3)c(=O)c(C(=O)O)cn4C)c(N3CC[C@H](N(C)C)C3)c12 [Example 1.254]	–	–	23 (≈ 42 µM)	< 0.098	< 0.098	0.164	36100
CNc1cc(F)c(Cl)c2c1[nH]c1ncc(-c3cnc4c(c3)c(=O)c(C(=O)O)cn4NC)c(N3CC[C@H]4CN(C)CC43)c12 (stereo partly shown) [Example 1.268]	–	–	24 (≈ 40.6 µM)	< 0.098	< 0.098	0.065	33400
CNc1cc(F)cc2c1[nH]c1ncc(-c3cnc4c(c3)c(=O)c(C(=O)O)cn4C)c(N3CCO[C@@H](CN(C)C)C3)c12 [Example 3.02A]	–	–	480 (≈ 858 µM)	< 0.098	< 0.098	0.268	> 100000
CNc1cc(F)cc2c1[nH]c1ncc(-c3cnc4c(c3)c(=O)c(C(=O)O)cn4C)c(N3CCO[C@H](CN(C)C)C3)c12 [Example 3.02B]	–	–	455 (≈ 813 µM)	< 0.098	< 0.098	0.444	> 100000
CNc1cc(F)c(F)c2c1[nH]c1ncc(-c3cnc4c(c3)c(=O)c(C(=O)O)cn4C)c(N3CCC[C@@H](N(C)C)C3)c12 [Example 3.06A]	–	–	66 (≈ 118 µM)	< 0.098	< 0.098	0.102	52500
CNc1cc(F)c(F)c2c1[nH]c1ncc(-c3cnc4c(c3)c(=O)c(C(=O)O)cn4C)c(N3CCC[C@H](N(C)C)C3)c12 [Example 3.06B]	–	–	85 (≈ 151 µM)	< 0.098	< 0.098	0.176	40200

Continued, in another order:

AUC total [1] [ng·h/mL]	clearance ([1]; female, CD-1, plasma, read-out: CL total) [mL/min/kg]	solubility thermodynamic [2] [µg/mL]	IC50 [4] [µM]	IC50 (S. aureus (ATCC29213)) [µM]	IC50 (A. baumannii (ATCC17978)) [µM]	SMILES	CC50 at 3 days [3] [nM]
–	–	152 (≈ 287 µM)	< 0.098	0.108	0.108	CNc1cc(F)cc2c1[nH]c1ncc(-c3cnc4c(c3)c(=O)c(C(=O)O)cn4C)c(N3CCC(N(C)C)C3)c12 (stereo not shown) [Example 1.75]	68500
–	–	530 (≈ 918 µM)	< 0.098	0.343	0.326	CNc1c(F)c(F)cc2c1[nH]c1ncc(-c3cnc4c(c3)c(=O)c(C(=O)O)cn4C)c(N3CCOC(CN(C)C)C3)c12 (stereo not shown) [Example 1.78]	42500
–	–	700 (≈ 1220 µM)	< 0.098	0.216	0.411	CNc1cc(F)cc2c1[nH]c1ncc(-c3cnc4c(c3)c(=O)c(C(=O)O)cn4C)c(N3CCOCC(CN(C)C)C3)c12 (stereo not shown) [Example 1.90]	> 100000
–	–	301 (≈ 540 µM)	< 0.098	< 0.098	0.155	CNc1cc(F)cc2c1[nH]c1ncc(-c3cnc4c(c3)c(=O)c(C(=O)O)cn4C)c(N3CCCC(CN(C)C)C3)c12 (stereo not shown) [Example 1.94]	38700
–	–	19 (≈ 33 µM)	< 0.098	< 0.098	0.244	CCNc1cc(F)c(F)c2c1[nH]c1ncc(-c3cnc4c(c3)c(=O)c(C(=O)O)cn4C)c(N3CCC(CN(C)C)C3)c12 (stereo not shown) [Example 1.106]	91300
–	–	266 (≈ 474 µM)	< 0.098	< 0.098	0.153	CNc1cc(F)c(F)c2c1[nH]c1ncc(-c3cnc4c(c3)c(=O)c(C(=O)O)cn4C)c(N3CCC(CN(C)C)C3)c12 (stereo not shown) [Example 1.135]	29300
–	–	91 (≈ 158 µM)	< 0.098	< 0.098	0.302	CNc1cc(Cl)cc2c1[nH]c1ncc(-c3cnc4c(c3)c(=O)c(C(=O)O)cn4C)c(N3CCOC(CN(C)C)C3)c12 (stereo not shown) [Example 1.138]	47300
–	–	530 (≈ 875 µM)	< 0.098	< 0.098	0.362	CCN(CC)CC1CN(c2c(-c3cnc4c(c3)c(=O)c(C(=O)O)cn4C)cnc3[nH]c4c(NC)cc(F)c(F)c4c23)CCO1 (stereo not shown) [Example 1.149]	66600
–	–	> 830	< 0.098	0.155	0.202	[2H]C([2H])([2H])Nc1cc(F)c(F)c2c1[nH]c1ncc(-c3cnc4c(c3)c(=O)c(C(=O)O)cn4C)c(N3CCC[C@H]3CN(C)C)c12 [Example 1.161]	> 100000
–	–	695 (≈ 1280 µM)	< 0.098	0.162	0.283	CNc1cc(F)cc2c1[nH]c1ncc(-c3cnc4c(c3)c(=O)c(C(=O)O)cn4C)c(N3CCC[C@H]3CN(C)C)c12 [Example 1.162]	67600
–	–	106 (≈ 180 µM)	< 0.098	< 0.098	0.216	CNc1cc(F)c(F)c2c1[nH]c1ncc(-c3cnc4c(c3)c(=O)c(C(=O)O)cn4C)c(N3CC[C@@H](CN4CCCC4)C3)c12 [Example 1.173]	44900
